Results reported in paper PMC8668186, “Molecular architecture of the human tRNA ligase complex” (eLife, 2021).

Target: T1, RTCB (Homo sapiens, UniProt Q9Y3I0)
T1 construct: full length (505 residues), N-terminal His6 tag removed with TEV protease, expressed in Sf9 insect cells; model residues 3-505 with gaps
T1 sequence (Q9Y3I0 1-505): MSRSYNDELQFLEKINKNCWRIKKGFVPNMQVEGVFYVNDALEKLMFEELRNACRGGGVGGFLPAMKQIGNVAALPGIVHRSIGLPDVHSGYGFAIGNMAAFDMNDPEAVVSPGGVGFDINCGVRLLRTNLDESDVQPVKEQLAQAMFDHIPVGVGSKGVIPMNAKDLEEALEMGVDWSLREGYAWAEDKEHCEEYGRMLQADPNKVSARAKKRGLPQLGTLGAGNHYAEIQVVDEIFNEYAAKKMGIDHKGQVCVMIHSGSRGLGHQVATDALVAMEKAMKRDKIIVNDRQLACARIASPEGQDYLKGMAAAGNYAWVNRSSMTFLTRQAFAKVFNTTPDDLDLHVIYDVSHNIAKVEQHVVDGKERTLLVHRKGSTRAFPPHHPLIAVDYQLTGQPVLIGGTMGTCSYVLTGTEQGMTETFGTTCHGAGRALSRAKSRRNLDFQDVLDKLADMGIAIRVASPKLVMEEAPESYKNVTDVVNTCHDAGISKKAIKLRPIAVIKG
Assay: X-ray crystal structure, […] Å
Format: binding
Settings: two Co2+ ions in active site, crystallised at pH 5.5, 20 °C, 5 mM CoCl2, 0.5 mM GMP, non-covalent product-bound state

SMILES: Nc1nc2c(ncn2[C@@H]2O[C@H](COP(=O)(O)O)[C@@H](O)[C@H]2O)c(=O)[nH]1 [GMP]
- X-ray crystal structure, 2.3 Å: crystal structure of human RTCB in complex with a GMP molecule and two divalent cobalt
